As usually defined, the IC50 is the point on the concentration scale where inhibition reaches its midpoint.

T1 sequence (P25106 whole entry): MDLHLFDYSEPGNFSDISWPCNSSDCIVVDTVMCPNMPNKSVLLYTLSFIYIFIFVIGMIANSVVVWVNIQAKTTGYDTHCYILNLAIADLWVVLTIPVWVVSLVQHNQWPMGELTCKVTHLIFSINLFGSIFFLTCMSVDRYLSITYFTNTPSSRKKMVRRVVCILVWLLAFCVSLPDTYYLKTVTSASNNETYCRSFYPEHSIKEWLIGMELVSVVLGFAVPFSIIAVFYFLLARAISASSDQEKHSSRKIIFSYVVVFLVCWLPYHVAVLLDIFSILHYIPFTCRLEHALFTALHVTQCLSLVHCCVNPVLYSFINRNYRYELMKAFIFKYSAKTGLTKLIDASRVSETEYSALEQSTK

This assay has as its target T1, CXCR7 (Homo sapiens, UniProt P25106).
T1 construct: expressed in transfected cells; host or cells: CHO cells (CHO-CXCR7), transgenes maintained with Hygromycin B and G418
The experiment in a line: CXCR7 β-arrestin recruitment assay in CHO-CXCR7 cells (ProLink/EA β-galactosidase complementation), induced by human SDF-1a. In kind it is cell-based. The following applies: assay buffer, SDF-1a at EC50 concentration. As for the experimental part: CXCR7 is fused in frame with a small enzyme donor fragment ProLink and co-expressed in CHO cells stably expressing a fusion protein of β-arrestin and the larger, N-terminal deletion mutant of β-galactosidase (called enzyme acceptor or EA). Activation of the CXCR7 stimulates binding of β-arrestin to the ProLink-tagged CXCR7 and forces complementation of the two enzyme fragments, resulting in the formation of an active β-galactosidase enzyme. The β-galactosidase enzyme activity is measured with a substrate that generates fluorescence.
CHO-CXCR7 cells (0.22×10^6/mL) were cultured in growth medium (Ham's F-12 medium with 10% fetal bovine serum (FBS)), Hygromycin B (200 ug/mL) and G418 (250 ug/mL) were used to maintain the transgenes. The day before the assay, the cells were detached from culture dishes with 0.25% trypsin-EDTA (Corning, Catalog No. 25-053-CI), plated into 96 well plate (2.2×10^5 cells/mL, 100 μL/well) and incubated overnight at 37° C. with 5% CO2. On the day of the assay, cell culture medium was removed and 100 uL of assay buffer (PBS or FBS) was added to each well. 1 μL of compound that were serially diluted in DMSO was added to each well. 5 μL of human SDF-la (Pepro Tech, Catalog No. 300-28A, at EC50 concentration pre-determined on the same day) was then added and mixed to induce CXCR7-mediated β-arrestin recruitment. The plates were incubated for 1.5 hours at 37° C. The assay buffer was removed, 100 μL substrate solution was added and the reaction was carried out at 37° C. for 30 minutes. The substrate solution was prepared by mixing 100 mL Phosphate Buffer (1M, Sigma, Catalog No. P3619-1GA), 100 mL 10% Triton X 100 (Sigma, Catalog No. T8787.), 5 mL MgCl2 (1M, Sigma, Catalog No. M1028), 1.5 mL, β-mercaptoethanol (Gibco, Catalog No. 21985-023.). 3-carboxyumbelliferyl β-D-galactopyranoside (ThermoFisher Scientific, Catalo No. F2905) was added at 0.4 mM right before use. The reaction was then stopped by adding 50 μL of Stop Solution (2.1% w/v Na2CO3) to each well. Fluorescence intensity was measured with a FlexStation 3 microplate reader (Molecular Devices) with the following setting—excitation: 360 nm, emission: 465 nm, manual Gain: 55. IC50 values were calculated with GraphPad Prism using 3 parameter nonlinear regression.
Background: Activated receptors often draw arrestin, which recruitment assays turn into a signal.
Take `CC(C)(NC(=O)CC1(NC(=O)c2nnc(-c3ccc(F)cc3F)s2)CN([C@H]2CC[C@](C)(O)CC2)C1)c1cc(Cl)cc(Cl)c1` [Example 1.007]: the half-maximal inhibitory concentration (IC50) was below 5 nM.

Turning to `CC(C)(NC(=O)CC1(NC(=O)c2cc(-c3ccc(F)cc3F)on2)CN(C2CCC(O)CC2)C1)c1ccccn1` (centres unmarked) [Example 1.300], the IC50 was in the range of 5 to 100 nM. Under `CC(C)(NC(=O)CC1(NC(=O)c2cc(-c3ccc(F)cc3F)on2)CN(c2ncccn2)C1)c1ccccn1` [Example 1.315] stands 1000 to 20000 nM. The compound `CC(C)(NC(=O)CC1(NC(=O)c2cc(-c3ccc(F)cc3F)on2)CN(CC2CC2)C1)c1ccccc1` [Example 1.322] showed an IC50 of 5 to 100 nM.

Consider `CC(C)(NC(=O)CC1(NC(=O)c2cc(-c3ccc(F)cc3F)on2)CN(C2CCCCC2)C1)c1cccc(F)c1` [Example 1.301], for which the IC50 was below 5 nM.

For the compound `Cc1ccc(C(C)(C)NC(=O)CC2(NC(=O)c3cc(-c4ccc(F)cc4F)on3)CN(C3CCCCC3)C2)cn1` [Example 1.281], the IC50 fell in the range of 5 to 100 nM. Consider `CC(C)(NC(=O)CC1(NC(=O)c2cc(-c3ccc(F)cc3F)on2)CN([C@H]2CC[C@@](C)(C(=O)O)CC2)C1)c1ccccn1` [Example 1.107], for which the IC50 was in the range of 1000 to 20000 nM. Compound `Cc1ccc(C(C)(C)NC(=O)CC2(NC(=O)c3cc(-c4ccc(F)cc4F)on3)CN([C@H]3CC[C@@](C)(O)CC3)C2)c(F)c1` [Example 1.246] gave an IC50 of 5 to 100 nM. In the case of `COc1cccc(C(C)(C)NC(=O)CC2(NC(=O)c3cc(-c4ccc(F)cc4F)on3)CN([C@H]3CC[C@](C)(O)CC3)C2)n1` [Example 1.204], the IC50 is below 5 nM. With `CC(C)(NC(=O)CC1(NC(=O)c2cc(-c3ccc(F)cc3F)on2)CN([C@H]2CC[C@](C)(O)CC2)C1)c1ccccc1F` [Example 1.228], the IC50 was below 5 nM.

`CC(C)(NC(=O)CC1(NC(=O)c2cc(-c3ccc(F)cc3F)on2)CN([C@H]2CC[C@](C)(O)CC2)C1)c1cccnc1` [Example 1.194] showed an IC50 of 5 to 100 nM.

`COc1cccc(C(C)(C)NC(=O)CC2(NC(=O)c3cc(-c4ccc(F)cc4F)on3)CN(CC3(C)COC3)C2)c1` [Example 1.174]: the IC50 was in the range of 100 to 1000 nM.

In turn, `COc1cc(Cl)cc(C(C)(C)NC(=O)CC2(NC(=O)c3cc(-c4ccc(F)cc4F)on3)CN([C@H]3CC[C@](C)(O)CC3)C2)c1` [Example 1.165] had a 50% inhibitory concentration (IC50) below 5 nM. The same measure for `CC(C)(NC(=O)CC1(NC(=O)c2cc(-c3ccc(F)cc3F)on2)CN(C2CCCCC2)C1)c1ccccn1` [Example 1.326]: below 5 nM. Take `O=C(CC1(NC(=O)c2cc(-c3ccc(F)cc3F)on2)CN(C2CCCCC2)C1)N[C@@H](CO)c1ccccc1` [Example 1.310]: the IC50 fell in the range of 1000 to 20000 nM. The same measure for `CC(C)(NC(=O)CC1(NC(=O)c2cc(-c3ccc(F)cc3F)on2)CN([C@H]2CC[C@](C)(O)CC2)C1)c1ncccn1` [Example 1.233]: below 5 nM; for `CC(C)(O)CN1CC(CC(=O)NC(C)(C)c2cc(Cl)ccc2F)(NC(=O)c2cc(-c3ccc(F)cc3F)on2)C1` [Example 1.134]: 5 to 100 nM; for `Cc1ccc(F)c(C(C)(C)NC(=O)CC2(NC(=O)c3cc(-c4ccc(F)cc4F)on3)CN([C@H]3CC[C@](C)(O)CC3)C2)n1` [Example 1.008]: below 5 nM.

The compound `CC(C)(NC(=O)CC1(NC(=O)c2cn(-c3ccc(F)cc3F)nn2)CN([C@H]2CC[C@@](C)(O)CC2)C1)c1cccc(Cl)c1` [Example 1.066] returned an IC50 of 5 to 100 nM.

As for `C[C@]1(O)CC[C@H](N2CC(CC(=O)NC3(c4ncccn4)CC3)(NC(=O)c3cc(-c4ccc(F)cc4F)on3)C2)CC1` [Example 1.356], the IC50 lay within 5 to 100 nM.

Take `CC(C)(NC(=O)CC1(NC(=O)c2cc(-c3ccc(F)cc3F)on2)CN(CC2COC2)C1)c1cccc(Cl)c1` [Example 1.135]: the IC50 was in the range of 100 to 1000 nM. The compound `Cc1cc(C(C)(C)NC(=O)CC2(NC(=O)c3cc(-c4ccc(F)cc4F)on3)CN([C@H]3CC[C@@](C)(O)CC3)C2)ccn1` [Example 1.210] came in with an IC50 below 5 nM.

Take `CC1(CN2CC(CC(=O)NC(C)(C)c3ccccn3)(NC(=O)c3cc(-c4ccc(F)cc4F)on3)C2)COC1` [Example 1.224]: the IC50 was 5 to 100 nM. On to `CC(C)(NC(=O)CC1(NC(=O)c2cc(-c3ccc(F)cc3F)on2)CN([C@H]2CC[C@](C)(O)CC2)C1)c1c[nH]c2ncccc12` [Example 1.097], for which the IC50 lay in the range of 5 to 100 nM.

In turn, `CC1(O)CCC(N2CC(CC(=O)NC3(c4ncccn4)CC3)(NC(=O)c3cc(-c4ccc(F)cc4F)on3)C2)CC1` (centres unmarked) [Example 1.277] yielded an IC50 below 5 nM. The compound `CC(C)(NC(=O)CC1(NC(=O)c2nnc(-c3ccc(F)cc3F)s2)CN([C@H]2CC[C@](C)(O)CC2)C1)c1ccccn1` [Example 1.063] came in with an IC50 of 5 to 100 nM. In turn, `CC(C)CN1CC(CC(=O)NC(C)(C)c2cncc(Cl)c2)(NC(=O)c2cc(-c3ccc(F)cc3F)on2)C1` [Example 1.016] gave an IC50 of 5 to 100 nM. Take `CC(C)(NC(=O)CC1(NC(=O)c2cc(-c3ccc(F)cc3F)on2)CN([C@H]2CC[C@@](C)(O)CC2)C1)c1cc(F)cc(F)c1` [Example 1.152]: the IC50 is below 5 nM.

`CC(C)(NC(=O)CC1(NC(=O)c2noc(-c3ccc(F)cc3F)n2)CN([C@H]2CC[C@](C)(O)CC2)C1)c1ccccc1` [Example 1.078] came in with an IC50 of 100 to 1000 nM. Compound `COc1cc(C)cc(C(C)(C)NC(=O)CC2(NC(=O)c3cc(-c4ccc(F)cc4F)on3)CN([C@H]3CC[C@](C)(O)CC3)C2)c1` [Example 1.119] had an IC50 of 5 to 100 nM. In turn, `CCc1cccc(C(C)(C)NC(=O)CC2(NC(=O)c3cc(-c4ccc(F)cc4F)on3)CN([C@H]3CC[C@@](C)(O)CC3)C2)c1` [Example 1.208] displayed an IC50 below 5 nM. Compound `CC(C)(NC(=O)CC1(NC(=O)c2cc(-c3ccc(F)cc3F)on2)CN([C@H]2CC[C@](C)(O)CC2)C1)c1cccc2cc[nH]c12` [Example 1.116] displayed an IC50 below 5 nM. `CC(C)(NC(=O)CC1(NC(=O)c2cc(-c3ccc(F)cc3F)on2)CN([C@H]2CC[C@@](C)(O)CC2)C1)c1cc(Cl)ccc1Cl` [Example 1.085] gave a half-inhibitory concentration (IC50) below 5 nM.

For the compound `COc1cncc(C(C)(C)NC(=O)CC2(NC(=O)c3cc(-c4ccc(F)cc4F)on3)CN([C@H]3CC[C@@](C)(O)CC3)C2)c1` [Example 1.141], the 50% inhibitory concentration (IC50) was 5 to 100 nM. Compound `O=C(CC1(NC(=O)c2cc(-c3ccc(F)cc3F)on2)CN(CC2CC2)C1)NC1(c2ccccc2)CC1` [Example 1.321] showed an IC50 of 100 to 1000 nM. Consider `CC(CN1CC(CC(=O)NC(C)(C)c2ccccn2)(NC(=O)c2cc(-c3ccc(F)cc3F)on2)C1)C(F)(F)F` (centres unmarked) [Example 1.018], for which the half-maximal inhibitory concentration (IC50) is 100 to 1000 nM. Under `COc1cccc(C(C)(C)NC(=O)CC2(NC(=O)c3cc(-c4ccc(F)cc4F)on3)CN([C@H]3CC[C@@](C)(O)CC3)C2)n1` [Example 1.203] stands below 5 nM; under `CC(C)(F)CN1CC(CC(=O)NC(C)(C)c2ccccn2)(NC(=O)c2cc(-c3ccc(F)cc3F)on2)C1` [Example 1.104], 1000 to 20000 nM.

As to `CC(C)(NC(=O)CC1(NC(=O)c2cc(-c3ccc(F)cc3F)on2)CN(C2CCCCC2)C1)c1ccccc1C(F)(F)F` [Example 1.308], the IC50 is below 5 nM.

`CC(C)(NC(=O)CC1(NC(=O)c2ncc(-c3ccc(F)cc3F)s2)CN([C@H]2CC[C@@](C)(O)CC2)C1)c1cccc(Cl)c1` [Example 1.045] showed an IC50 of 5 to 100 nM. As to `CC(C)(NC(=O)CC1(NC(=O)c2cc(-c3ccc(F)cc3F)on2)CN([C@H]2CC[C@](C)(O)CC2)C1)c1ccnc2[nH]ccc12` [Example 1.101], the IC50 is 5 to 100 nM. The same measure for `CC(C)(NC(=O)CC1(NC(=O)c2cc(-c3ccc(F)cc3F)on2)CN(C2CCCCC2)C1)c1nccs1` [Example 1.276]: 5 to 100 nM.

For the compound `CC(C)(NC(=O)CC1(NC(=O)c2cc(-c3ccc(F)cc3F)on2)CN([C@H]2CCCCC2(C)C)C1)c1ccccn1` [Example 1.275], the IC50 was below 5 nM. `CC(C)(C)CN1CC(CC(=O)NC2(c3ncccn3)CC2)(NC(=O)c2cc(-c3ccc(F)cc3F)on2)C1` [Example 1.330]: the half-maximal inhibitory concentration (IC50) was 5 to 100 nM. On to `CC(C)(NC(=O)CC1(NC(=O)c2cc(-c3ccc(F)cc3F)on2)CN(c2ccccn2)C1)c1ccccn1` [Example 1.314], for which the IC50 fell in the range of 1000 to 20000 nM. As for `CC(C)(O)CCN1CC(CC(=O)NC(C)(C)c2ccccn2)(NC(=O)c2cc(-c3ccc(F)cc3F)on2)C1` [Example 1.230], the IC50 is 1000 to 20000 nM. For `CC(C)(NC(=O)CC1(NC(=O)c2cc(-c3ccc(F)cc3F)no2)CN([C@H]2CC[C@](C)(O)CC2)C1)c1cccc(Cl)c1` [Example 1.048], the IC50 is below 5 nM.

For the origin of these results see patent publication US12448373B2, “Azetidinyl-acetamides as CXCR7 inhibitors” (CHEMOCENTRYX, INC., priority 2021, dated 2025).
